Test results taken from ChEMBL document CHEMBL1201861, “Genomics of Drug Sensitity in Cancer screening data, Wellcome Trust Sanger Institute”.

Experiments:
Assay in all cases: cells
SW1573 = type: functional, cell-based, Homo sapiens; details: Homo sapiens, SW1573;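 note: growth inhibition of SW1573 cells, read out with a cell viability assay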
Description: SANGER: Inhibition of human SW1573 cell growth in a cell viability assay.

HCC1419 = type: functional, cell-based, Homo sapiens; details: Homo sapiens, HCC1419;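 note: growth inhibition of human HCC1419 cells, read out as cell viability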
Description: SANGER: Inhibition of human HCC1419 cell growth in a cell viability assay.

PA-1 = type: functional, cell-based, Homo sapiens; details: Homo sapiens, PA-1;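 note: IC50 for suppression of PA-1 cell proliferation, determined with a cell viability read-out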
Description: SANGER: Inhibition of human PA-1 cell growth in a cell viability assay.

SW1417 = type: functional, cell-based, Homo sapiens; details: Homo sapiens, SW1417;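 note: growth inhibition of human SW1417 cells, read out with a cell viability assay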
Description: SANGER: Inhibition of human SW1417 cell growth in a cell viability assay.

SW948 = type: functional, cell-based, Homo sapiens; details: Homo sapiens, SW948;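 note: growth inhibition of SW948 cells, read out with a cell viability assay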
Description: SANGER: Inhibition of human SW948 cell growth in a cell viability assay.

EFO-21 = type: functional, cell-based, Homo sapiens; details: Homo sapiens, EFO-21;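 note: growth inhibition of EFO-21 cells measured with a viability assay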
Description: SANGER: Inhibition of human EFO-21 cell growth in a cell viability assay.

KYSE-150 cell line = type: functional, cell-based, Homo sapiens; details: Homo sapiens, KYSE-150;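 note: growth inhibition of human KYSE-150 cells, read out with a cell viability assay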
Description: SANGER: Inhibition of human KYSE-150 cell growth in a cell viability assay.

C8166 = type: functional, cell-based; details: Homo sapiens;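 note: growth inhibition of human C8166 cells measured by a cell viability assay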
Description: SANGER: Inhibition of human C8166 cell growth in a cell viability assay.

KYSE-270 = type: functional, cell-based, Homo sapiens; details: Homo sapiens, KYSE-270;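 note: cell growth inhibition measured with a viability assay in the human KYSE-270 line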
Description: SANGER: Inhibition of human KYSE-270 cell growth in a cell viability assay.

Ramos-2G6-4C10 = type: functional, cell-based; details: Homo sapiens;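 note: growth inhibition of the cell line, measured by a cell viability read-out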
Description: SANGER: Inhibition of human Ramos-2G6-4C10 cell growth in a cell viability assay.

GCT = type: functional, cell-based, Homo sapiens; details: Homo sapiens, GCT;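 note: GCT cell line proliferation inhibition, read out with a cell viability assay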
Description: SANGER: Inhibition of human GCT cell growth in a cell viability assay.

CAL-51 = type: functional, cell-based, Homo sapiens; details: Homo sapiens, CAL-51;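 note: human CAL-51 cell line, growth inhibition read out via a cell viability assay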
Description: SANGER: Inhibition of human CAL-51 cell growth in a cell viability assay.

RH-1 = type: functional, cell-based, Homo sapiens; details: Homo sapiens, RH-1;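 note: growth inhibition of human RH-1 cells, read out with a cell viability assay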
Description: SANGER: Inhibition of human RH-1 cell growth in a cell viability assay.

COLO-668 = type: functional, cell-based, Homo sapiens; details: Homo sapiens, COLO-668
Description: SANGER: Inhibition of human COLO-668 cell growth in a cell viability assay.

Huh-7 = type: functional, cell-based, Homo sapiens; details: Homo sapiens, Huh-7;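 note: HuH-7 cell growth inhibition, read out with a cell viability assay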
Description: SANGER: Inhibition of human HuH-7 cell growth in a cell viability assay.

U-87 MG = type: functional, cell-based, U-87MG ATCC; details: Homo sapiens;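 note: growth inhibition of the cells measured with a viability assay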
Description: SANGER: Inhibition of human U-87-MG cell growth in a cell viability assay.

KLE = type: functional, cell-based, Homo sapiens; details: Homo sapiens, KLE;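 note: growth inhibition of human KLE cells, read out with a cell viability assay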
Description: SANGER: Inhibition of human KLE cell growth in a cell viability assay.

HOS = type: functional, cell-based, Homo sapiens; details: Homo sapiens, HOS;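 note: growth inhibition of human HOS cells, read out with a cell viability assay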
Description: SANGER: Inhibition of human HOS cell growth in a cell viability assay.

SK-NEP-1 = type: functional, cell-based; details: Homo sapiens;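 note: growth inhibition of human SK-NEP-1 cells, read out by a cell viability assay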
Description: SANGER: Inhibition of human SK-NEP-1 cell growth in a cell viability assay.

NCI-H1092 = type: functional, cell-based; details: Homo sapiens;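 note: cell growth inhibition measured with a cell viability assay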
Description: SANGER: Inhibition of human NCI-H1092 cell growth in a cell viability assay.

NCI-H747 = type: functional, cell-based; details: Homo sapiens;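 note: growth inhibition of human NCI-H747 cells, read out by a cell viability assay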
Description: SANGER: Inhibition of human NCI-H747 cell growth in a cell viability assay.

SK-MEL-30 = type: functional, cell-based; details: Homo sapiens;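 note: growth inhibition of SK-MEL-30 cells, determined with a cell viability assay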
Description: SANGER: Inhibition of human SK-MEL-30 cell growth in a cell viability assay.

639-V = type: functional, cell-based, Homo sapiens; details: Homo sapiens, 639-V;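 note: growth inhibition of 639-V cells, read out with a cell viability assay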
Description: SANGER: Inhibition of human 639-V cell growth in a cell viability assay.

IST-MEL1 = type: functional, cell-based, Homo sapiens; details: Homo sapiens, IST-MEL1;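 note: growth inhibition of the cell line, read out with a cell viability assay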
Description: SANGER: Inhibition of human IST-MEL1 cell growth in a cell viability assay.

CAL-120 = type: functional, cell-based, Homo sapiens; details: Homo sapiens, CAL-120;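 note: cell growth inhibition, read out as cell viability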
Description: SANGER: Inhibition of human CAL-120 cell growth in a cell viability assay.

NCI-H2126 = type: functional, cell-based, Homo sapiens; details: Homo sapiens, NCI-H2126;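 note: growth inhibition of the cancer cell line, determined with a cell viability readout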
Description: SANGER: Inhibition of human NCI-H2126 cell growth in a cell viability assay.

NCI-H1755 = type: functional, cell-based, Homo sapiens; details: Homo sapiens, NCI-H1755;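 note: cell viability readout used to measure growth inhibition of NCI-H1755 cells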
Description: SANGER: Inhibition of human NCI-H1755 cell growth in a cell viability assay.

LCLC-103H cell line = type: functional, cell-based, Homo sapiens; details: Homo sapiens, LCLC-103H
Description: SANGER: Inhibition of human LCLC-103H cell growth in a cell viability assay.

A388 = type: functional, cell-based, Homo sapiens; details: Homo sapiens, A388;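 note: growth inhibition of human A388 cells, read out with a cell viability assay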
Description: SANGER: Inhibition of human A388 cell growth in a cell viability assay.

NCI-H2452 = type: functional, cell-based, Homo sapiens; details: Homo sapiens, NCI-H2452;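 note: growth inhibition of NCI-H2452 cells, read out with a cell viability assay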
Description: SANGER: Inhibition of human NCI-H2452 cell growth in a cell viability assay.

ES4 = type: functional, cell-based, Homo sapiens; details: Homo sapiens, ES4;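 note: growth inhibition of human ES4 cells, read out by a cell viability assay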
Description: SANGER: Inhibition of human ES4 cell growth in a cell viability assay.

SW684 = type: functional, cell-based, Homo sapiens; details: Homo sapiens, SW684;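 note: growth inhibition of human SW684 cells, measured by a cell viability assay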
Description: SANGER: Inhibition of human SW684 cell growth in a cell viability assay.

MC-IXC = type: functional, cell-based, Homo sapiens; details: Homo sapiens, MC-IXC;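 note: growth inhibition of MC-IXC cells, read out with a cell viability assay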
Description: SANGER: Inhibition of human MC-IXC cell growth in a cell viability assay.

IGR-1 = type: functional, cell-based, Homo sapiens; details: Homo sapiens, IGR-1;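 note: growth inhibition of human IGR-1 cells, read out with a cell viability assay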
Description: SANGER: Inhibition of human IGR-1 cell growth in a cell viability assay.

LS-513 = type: functional, cell-based, Homo sapiens; details: Homo sapiens, LS-513
Description: SANGER: Inhibition of human LS-513 cell growth in a cell viability assay.

COR-L23 = type: functional, cell-based, Homo sapiens; details: Homo sapiens, COR-L23;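 note: cell viability assay measuring how strongly compounds suppress growth of COR-L23 cells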
Description: SANGER: Inhibition of human COR-L23 cell growth in a cell viability assay.

NCI-H2087 = type: functional, cell-based, Homo sapiens; details: Homo sapiens, NCI-H2087;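 note: growth inhibition determined with a cell viability readout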
Description: SANGER: Inhibition of human NCI-H2087 cell growth in a cell viability assay.

P30-OHK = type: functional, cell-based; details: Homo sapiens;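 note: growth inhibition of the P30-OHK cell line, read out with a cell viability assay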
Description: SANGER: Inhibition of human P30-OHK cell growth in a cell viability assay.

QIMR-WIL = type: functional, cell-based; details: Homo sapiens;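 note: growth inhibition of QIMR-WIL cells, read out with a cell viability assay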
Description: SANGER: Inhibition of human QIMR-WIL cell growth in a cell viability assay.

SF-268 = type: functional, cell-based, Homo sapiens; details: Homo sapiens, SF-268;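 note: growth inhibition of SF-268 cells determined with a cell viability assay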
Description: SANGER: Inhibition of human SF268 cell growth in a cell viability assay.

ME-180 = type: functional, cell-based; details: Homo sapiens;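 note: cell viability assay measuring growth inhibition of ME-180 cells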
Description: SANGER: Inhibition of human ME-180 cell growth in a cell viability assay.

NCI-H1793 = type: functional, cell-based, Homo sapiens; details: Homo sapiens, NCI-H1793;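 note: cell growth inhibition, read out by a cell viability assay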
Description: SANGER: Inhibition of human NCI-H1793 cell growth in a cell viability assay.

T-24 = type: functional, cell-based, Homo sapiens; details: Homo sapiens, T-24;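 note: growth inhibition of T-24 cells, read out with a cell viability assay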
Description: SANGER: Inhibition of human T-24 cell growth in a cell viability assay.

MG-63 = type: functional, cell-based, Homo sapiens; details: Homo sapiens, MG-63;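 note: growth inhibition of human MG-63 cells, read out with a cell viability assay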
Description: SANGER: Inhibition of human MG-63 cell growth in a cell viability assay.

A-375 = type: functional, cell-based, Homo sapiens; details: Homo sapiens, A-375;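 note: growth inhibition of A375 cells, read out with a cell viability assay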
Description: SANGER: Inhibition of human A375 cell growth in a cell viability assay.

COLO-741 = type: functional, cell-based, Homo sapiens; details: Homo sapiens, COLO-741
Description: SANGER: Inhibition of human COLO-741 cell growth in a cell viability assay.

SW1783 = type: functional, cell-based; details: Homo sapiens;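 note: cell growth inhibition measured with a viability assay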
Description: SANGER: Inhibition of human SW1783 cell growth in a cell viability assay.

NCI-H1395 = type: functional, cell-based, Homo sapiens; details: Homo sapiens, NCI-H1395;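 note: cell viability assay read-out quantifying reduced proliferation of human NCI-H1395 cells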
Description: SANGER: Inhibition of human NCI-H1395 cell growth in a cell viability assay.

LU-134-A = type: functional, cell-based; details: Homo sapiens
Description: SANGER: Inhibition of human LU-134-A cell growth in a cell viability assay.

G-401 = type: functional, cell-based, Homo sapiens; details: Homo sapiens, G-401
Description: SANGER: Inhibition of human G-401 cell growth in a cell viability assay.

OVCAR-5 = type: functional, cell-based, Homo sapiens; details: Homo sapiens, OVCAR-5;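 note: growth inhibition of human OVCAR-5 cells, read out with a cell viability assay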
Description: SANGER: Inhibition of human OVCAR-5 cell growth in a cell viability assay.

SMILES: CN(Cc1cnc2nc(N)nc(N)c2n1)c1ccc(C(=O)N[C@@H](CCC(=O)O)C(=O)O)cc1 [METHOTREXATE]
- IC50 (SW1573): > 200 nM
- IC50 (HCC1419): > 200 nM
- IC50 (PA-1): > 200 nM
- IC50 (SW1417): > 200 nM
- IC50 (SW948): > 200 nM
- IC50 (EFO-21): > 200 nM
- IC50 (KYSE-150 cell line): 115 nM
- IC50 (C8166): > 200 nM
- IC50 (KYSE-270): 52.1 nM
- IC50 (Ramos-2G6-4C10): 26.9 nM
- IC50 (GCT): > 200 nM
- IC50 (CAL-51): > 200 nM
- IC50 (RH-1): > 200 nM
- IC50 (COLO-668): > 200 nM
- IC50 (Huh-7): > 200 nM
- IC50 (U-87 MG): > 200 nM
- IC50 (KLE): > 200 nM
- IC50 (HOS): > 200 nM
- IC50 (SK-NEP-1): 4.82 nM
- IC50 (NCI-H1092): > 200 nM
- IC50 (NCI-H747): > 200 nM
- IC50 (SK-MEL-30): > 200 nM
- IC50 (639-V): > 200 nM
- IC50 (IST-MEL1): 126 nM
- IC50 (CAL-120): > 200 nM
- IC50 (NCI-H2126): > 200 nM
- IC50 (NCI-H1755): > 200 nM
- IC50 (LCLC-103H cell line): 174 nM
- IC50 (A388): > 200 nM
- IC50 (NCI-H2452): > 200 nM
- IC50 (ES4): 79.5 nM
- IC50 (SW684): > 200 nM
- IC50 (MC-IXC): > 200 nM
- IC50 (IGR-1): > 200 nM
- IC50 (LS-513): > 200 nM
- IC50 (COR-L23): 122 nM
- IC50 (NCI-H2087): > 200 nM
- IC50 (P30-OHK): 43.6 nM
- IC50 (QIMR-WIL): 139 nM
- IC50 (SF-268): > 200 nM
- IC50 (ME-180): > 200 nM
- IC50 (NCI-H1793): > 200 nM
- IC50 (T-24): > 200 nM
- IC50 (MG-63): 197 nM
- IC50 (A-375): > 200 nM
- IC50 (COLO-741): 162 nM
- IC50 (SW1783): > 200 nM
- IC50 (NCI-H1395): > 200 nM
- IC50 (LU-134-A): 88.7 nM
- IC50 (G-401): > 200 nM
- IC50 (OVCAR-5): > 200 nM

SMILES: COc1ccc(C2=N[C@@H](c3ccc(Cl)cc3)[C@@H](c3ccc(Cl)cc3)N2C(=O)N2CCNC(=O)C2)c(OC(C)C)c1 [NUTLIN-3]
- IC50 (SW1573): > 8000 nM
- IC50 (HCC1419): > 8000 nM
- IC50 (PA-1): 871 nM
- IC50 (SW1417): > 8000 nM
- IC50 (SW948): > 8000 nM
- IC50 (EFO-21): > 8000 nM
- IC50 (KYSE-150 cell line): > 8000 nM
- IC50 (C8166): > 8000 nM
- IC50 (KYSE-270): > 8000 nM
- IC50 (Ramos-2G6-4C10): > 8000 nM
- IC50 (GCT): > 8000 nM
- IC50 (CAL-51): > 8000 nM
- IC50 (RH-1): > 8000 nM
- IC50 (COLO-668): > 8000 nM
- IC50 (Huh-7): > 8000 nM
- IC50 (U-87 MG): > 8000 nM
- IC50 (KLE): > 8000 nM
- IC50 (HOS): > 8000 nM
- IC50 (SK-NEP-1): > 8000 nM
- IC50 (NCI-H1092): > 8000 nM
- IC50 (NCI-H747): > 8000 nM
- IC50 (SK-MEL-30): > 8000 nM
- IC50 (639-V): > 8000 nM
- IC50 (IST-MEL1): > 8000 nM
- IC50 (CAL-120): > 8000 nM
- IC50 (NCI-H2126): > 8000 nM
- IC50 (NCI-H1755): > 8000 nM
- IC50 (LCLC-103H cell line): > 8000 nM
- IC50 (A388): > 8000 nM
- IC50 (NCI-H2452): > 8000 nM
- IC50 (ES4): 2430 nM
- IC50 (SW684): > 8000 nM
- IC50 (MC-IXC): > 8000 nM
- IC50 (IGR-1): > 8000 nM
- IC50 (LS-513): 6790 nM
- IC50 (COR-L23): > 8000 nM
- IC50 (NCI-H2087): > 8000 nM
- IC50 (P30-OHK): > 8000 nM
- IC50 (QIMR-WIL): 1610 nM
- IC50 (SF-268): > 8000 nM
- IC50 (ME-180): > 8000 nM
- IC50 (NCI-H1793): > 8000 nM
- IC50 (T-24): > 8000 nM
- IC50 (MG-63): > 8000 nM
- IC50 (A-375): 4340 nM
- IC50 (COLO-741): > 8000 nM
- IC50 (SW1783): > 8000 nM
- IC50 (NCI-H1395): > 8000 nM
- IC50 (LU-134-A): > 8000 nM
- IC50 (G-401): 3360 nM
- IC50 (OVCAR-5): > 8000 nM
